Results published in patent US12497610B2, “Functional genomics using CRISPR-CAS systems for saturating mutagenesis of non-coding elements, compositions, methods, libraries and applications thereof” (THE BROAD INSTITUTE, INC., priority 2015, dated 2025).

What was measured:
Type in all cases: cell-based, human
CUL3 = experiment: ddPCR quantification of CUL3 expression in A375 cells transduced with individual sgRNAs; conditions: for CUL3 expression: A375, relative to non-targeting sgRNAs, result in words; for decrease in CUL3 expression: A375, 7 days post-transduction, normalized to non-targeting sgRNAs
From the text: Array Validation of Primary Screen Hits
For individual (array) validation of noncoding sgRNAs, Applicants first identified sgRNAs enriched in the top 5% of the library as given by the normalized log 2(Vemu/DMSO) read ratio. In order to have high confidence in these sgRNAs, Applicants used the minimum of the two infection replicates for the normalized log2 (Vemu/DMSO) read ratio. […] This ensures that putative noncoding functional elements were supported by the presence of at least 2 enriched sgRNAs. From this group, Applicants picked 25 sgRNAs distributed across different genomic regions for individual validation (see table S2 for a list of sgRNA sequences). Applicants also included 3 exon-targeting and 3 non-targeting sgRNAs to serve as positive and negative controls, respectively.
For each sgRNA, standard desalted short oligonucleotides (Integrated DNA Technologies) were annealed, phosphorylated and cloned into a lentiviral vector (lentiCRISPRv2, Addgene 52961) that contained Cas9 and an sgRNA cassette. For each sgRNA, A375 cells were transduced with lentiviral supernatants. After 24 hours, media was replaced with R10 with 1 ug/mL of puromycin. Viral volumes were titered such that 20-40% of cells survived after puromycin selection. After selection and expansion for 7 days in puromycin, cell were plated for DNA/RNA extraction, vemurafenib resistance, or ChIP assays.
RNA Extraction and ddPCR Quantification of CUL3 Expression
After 7 days of puromycin selection, A375 cells transduced with individual lentiCRISPRv2 sgRNAs were plated in 3 replicate wells (2×10^3 cells/well) in 96-well plates. After 4 days (70-90% confluent), RNA was extracted using a homemade version of a rapid lysis kit for quantitative PCR (similar to commercial “Cells-to-Ct”-style kits). This procedure (detailed below) enables rapid RNA extraction and qPCR/ddPCR readout from 96-well plates with minimal hands-on time.
Cells were first washed in 100 ul of chilled phosphate-buffered saline (PBS). Then, cells were incubated at room temperature for 8 minutes in 50 ul of Complete Lysis Buffer. The Complete Lysis Buffer consists of the Base Lysis Buffer with freshly added 100 ug/ml Proteinase K (Sigma P2308) and 300 U/mL DNase I (Sigma D2821). When adding DNase I, it is important to not vortex but mix only by gentle pipetting. The Base Lysis Buffer is made in RNAse-free water (ThermoFisher Scientific 10977015) with 10 mM Tris pH8 (Ambion AM9856), 0.5 mM MgCl2 (Sigma M1028), 0.44 mM CaCl2 (Sigma 21115), 10 uM DTT (Sigma 43816), 0.1% Triton X-114 (Calbiochem 648468), and 1.73 mN HCl (Sigma 318965) and should have a final pH of 7.8. The Base Lysis Buffer is stable at 4° C. for up to 6 months.
After the 8-minute incubation in Complete Lysis Buffer, 30 ul of the cell lysis was added to new PCR plates containing 3 ul of STOP buffer in each well to stop the lysis reaction. The STOP buffer is made in RNAse-free water with 1 mM Proteinase K inhibitor AAPF N-(Methoxysuccinyl)-Ala-Ala-Pro-Phe-chloromethyl ketone (SEQ ID NO: 174) (Millipore 539470), 90 mM EDTA (ThermoFisher Scientific 15575020), and 113 uM DTT (Sigma 43816). The final pH of the STOP buffer should be 8, adjusted appropriately with HCl and KOH. The STOP buffer is stable for up to 6 months at 20° C. The lysis reaction was mixed with the STOP buffer by pipetting up and down 5 times. Applicants then incubated the lysis and STOP buffer for at least 2 minutes but not more than 20 minutes. (Extra stopped lysis can be stored at −80° C. for up to 5 months.)
Applicants transferred 5 ul of the stopped lysis to new PCR plates with 20 ul of RT master mix. The RT master mix is from the RevertAid Reverse Transcriptase kit (ThermoFisher Scientific K1691) and is as described in the manufacturer's protocol but with an added oligo-dT primer. […]

[1] = tested on: sgRNA target sites near CUL3; experiment: Deep sequencing after CRISPR mutagenesis (indel analysis at sgRNA target sites)
Protocol: Deep Sequencing after CRISPR Mutagenesis
After 7 days of puromycin selection, A375 cells transduced with individual lentiCRISPRv2 sgRNAs were plated in 2 replicate wells (2×10^3 cells/well) in 96-well plates. Cells were plated in either R10+DMSO or R10+vemurafenib (2 uM). After 4 days (70-90% confluent), Applicants extracted gDNA from all wells (Illumina/Epicentre QuickExtract QE09050) and performed amplification and deep sequencing as previously described (Shalem et al. 2014). Briefly, for each sgRNA target site, Applicants designed PCR primers to amplify genomic regions surrounding the site (100-200 bp amplicons) and to add universal handles for the second stage of amplification (see table S3 for all deep sequencing primers). Applicants then used a second PCR step to add sequences needed for Illumina sequencing and sample barcoding. Applicants pooled all samples together and sequenced them on a MiSeq using a 250 bp single-end read (Illumina MS-102-2002).
Custom Python scripts were used for barcode demultiplexing and insertion-deletion (indel) length measurement. To measure indel length and eliminate any potential off-target or primer-dimer reads, Applicants first identified our genomic (first PCR step) primers in each read. Applicants then checked that each read contained at least 5 bases beyond each of the genomic primers. Typically, 80-90% of demultiplexed reads matched this criterion. Reads matching this criterion were used to measure indel length by comparing distances between the identified primer-adjacent sequences with those in the reference sequence. Further multiple alignment analysis for specific sgRNAs was done using Geneious's iterative k-mer multiple alignment tool (Geneious 6.1.7).

YY1 = experiment: ChIP-ddPCR for YY1; conditions: ChIP-ddPCR around cut site vs non-targeting sgRNA
Protocol: (§1) Chromatin Immunoprecipitation (ChIP) for Histone Modifications and Transcription Factors
(§2) After 7 days of puromycin selection, A375 cells transduced with individual lentiCRISPRv2 sgRNAs were plated in T-225 flasks and grown to 70-90% confluence (6 days). At this point, chromatin fixation was initiated by adding formaldehyde directly to the growth media (final concentration 1%) and incubating at 37° C. for 10 minutes. The entire two-day ChIP procedure was performed using the Magna ChIP HiSens Chromatin Immunoprecipitation Kit (Millipore 1710460), as specified in the manufacturer's protocol. […]
(§3) Using BatchPrimer3, Applicants designed primers centered on the sgRNA target site with a target amplicon size of 80-120 bp (see table S4 for ChIP-ddPCR primers). Droplet digital PCR (ddPCR) reactions using EvaGreen (BioRad 1864034) were used to quantify changes between input, histone/TF ChIP, and IgG ChIP samples for A375 cells transduced with specific sgRNAs and untransduced A375 cells. […] Applicants calculated the percent change in ChIP signal after genome editing by normalizing each ChIP sample to its corresponding input sample and then comparing the normalized ChIP between A375s transduced with specific sgRNAs and untransduced (control) A375 cells.

ZNF263 = experiment: ChIP-ddPCR for ZNF263; conditions: ChIP-ddPCR vs non-targeting sgRNA
Protocol: as §1, §2, §3

FOS = experiment: ChIP-ddPCR for FOS; conditions: ChIP-ddPCR compared with control cells
Protocol: as §1, §2, §3

JUN = experiment: ChIP-ddPCR for JUN; conditions: ChIP-ddPCR compared with control cells
Protocol: as §1, §2, §3

CTCF = experiment: ChIP-ddPCR for CTCF; conditions: ChIP-ddPCR at the site after editing
Protocol: as §1, §2, §3

Row | Substance | CUL3 expression (CUL3) | ZNF263 occupancy (ZNF263) | decrease in CUL3 expression (CUL3) | FOS binding (FOS) | JUN binding (JUN) | further results
1 | 5′-UTR sg2: validation sgRNA GCGCTCCTCCGCGATGGCGG, SEQ ID NO 456, 5′ UTR (expressed or natural sequence) | significantly decrease |  |  |  |  | indel mutations that damage a YY1 binding motif ([1]; A375, vemurafenib vs DMSO control, 4 days): more indel mutations that damage a YY1 binding motif; decrease of YY1 binding (YY1): 67%
2 | Intron-sg2: validation sgRNA CGCGGAGTCCTCCCTGTGTG, SEQ ID NO 455, intron and promoter (expressed or natural sequence) | decrease in CUL3 expression | significant decrease |  |  |  | 
3 | Intron-sg1: validation sgRNA TCCGCGGCTGCTAGCAGCGC, SEQ ID NO 454, intron and promoter (expressed or natural sequence) | decrease in CUL3 expression | significant decrease |  |  |  | 
4 | distal 3′ sg1: validation sgRNA AGOACACAGTCATAACCACA, SEQ ID NO 445, 3′ of CUL3 (guide AGCACACAGTCATAACCACA; expressed or natural sequence) |  |  | ~25% | decreased | decreased | 
5 | distal 3′ sg2: validation sgRNA GCAGCGTCCGGAGTTGGCAC, SEQ ID NO 444, 3′ of CUL3 (expressed or natural sequence) |  |  | ~25% | decreased | decreased | 
6 | CTCF sg1: validation sgRNA GCCACAGCCATGCCCAGTOG, SEQ ID NO 446, 3′ of CUL3 (guide GCCACAGCCATGCCCAGTGG; expressed or natural sequence) |  |  | 30% |  |  | mean indel size ([1]; A375, deep sequencing of the site): −9.5 bp; amplicons / alleles containing insertion-deletion (indel) mutations ([1]; A375 after 7 days selection): 96%; decrease of CTCF occupancy (CTCF): 45%
